Some test systems named below: COLO 205; U-251; A498; RXF 393; HCT-15; Hs-578T; CCRF-CEM; SK-MEL-28; 786-0; OVCAR-8; UACC-62; MOLT-4; NCI-H23; SF-539; SK-OV-3; SR; MDA-N; SW-620; KM12.
Holding throughout (assay): NCI anticancer screen, dose series, 48 h

Molecules are shown by their SMILES.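 Values below derive from 48-hour exposures of cells grown in 96-well plates, with endpoints linearly interpolated between the two concentrations bracketing the appropriate inhibition level. At the GI50, growth is halved.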 The source made the active and inactive calls. No stated cut-off is given here; in the data, active = GI50 up to about 1.1 µM and inactive = higher.

Turning to `CSC1=NC(C(N)=O)C(N)N1C` (stereo unspecified), the GI50 with COLO 205 was > 100 µM (inactive); with U-251, > 100 µM (inactive); with A498 it was > 100 µM (inactive); in the test on RXF 393, > 100 µM (inactive); in the test on HCT-15, > 100 µM; with Hs-578T it was > 100 µM (inactive). In addition, the GI50 in the test with CCRF-CEM, in the test on SK-MEL-28, in the test with 786-0, in the test with OVCAR-8, with UACC-62 and in the test on MOLT-4 was > 100 µM (inactive) each time. Besides, the GI50 in the test with NCI-H23, in the test on SF-539, in the test with SK-OV-3, in the test with SR, with MDA-N and in the test with SW-620 was > 100 µM (inactive) in each case. The GI50 with KM12 is > 100 µM (inactive).

As for `N=C(N)Nc1ccc(-c2ccc(NC(=N)N)cc2)cc1`, the GI50 in the test with COLO 205 was 21.5 µM (inactive); in the test with U-251, 23.6 µM (inactive); with A498, 6.95 µM (inactive); in the test on RXF 393, 22.4 µM (inactive); with HCT-15, 49.5 µM; with Hs-578T, 19.4 µM (inactive). In addition, the GI50 in the test with CCRF-CEM was 37.3 µM (inactive); in the test on SK-MEL-28 it was 45.5 µM (inactive); in the test with 786-0, 24 µM (inactive); in the test with OVCAR-8 it was 43.8 µM (inactive); with UACC-62, 40.1 µM (inactive); in the test with MOLT-4 it was > 100 µM (inactive). For the same compound, the GI50 in the test with NCI-H23 was 35.6 µM (inactive); in the test with SF-539, 20.9 µM (inactive); in the test with SK-OV-3, > 55.8 µM (inactive); with SR, 14.6 µM (inactive); with MDA-N, 40.7 µM (inactive); in the test with SW-620, 62.5 µM (inactive). Also, the GI50 in the test on KM12 was 33.5 µM (inactive).

In the case of `COC1CC(C)([N+](=O)[O-])C(O)C(C)O1` (stereo unspecified), the GI50 in the test with COLO 205 was > 100 µM (inactive); in the test with U-251, > 100 µM (inactive); with A498, > 100 µM (inactive); with RXF 393, > 100 µM (inactive); in the test with HCT-15, > 100 µM; in the test on Hs-578T, > 100 µM (inactive). For the same compound, the GI50 in the test on CCRF-CEM, in the test with SK-MEL-28, in the test with 786-0, with OVCAR-8, with UACC-62 and in the test on MOLT-4 was > 100 µM (inactive) in each case. The GI50 in the test on NCI-H23, with SF-539, with SK-OV-3, in the test on SR, in the test with MDA-N and in the test on SW-620 was > 100 µM (inactive) each time. Further, the GI50 with KM12 was > 100 µM (inactive).

With `COc1ccc(NC(=O)CC(=O)NNC(Sc2ccccc2)c2cc(/N=N/c3ccc(Br)cc3)ccc2O)cc1` (stereo unspecified), the GI50 in the test on COLO 205 was > 10 µM (inactive); in the test with U-251, > 10 µM (inactive); with A498, > 10 µM (inactive); in the test on RXF 393, > 10 µM (inactive); in the test on HCT-15, > 10 µM; in the test with Hs-578T, > 10 µM (inactive). Also, the GI50 was 3.56 µM (inactive) in the test with CCRF-CEM; > 10 µM (inactive) in the test on SK-MEL-28; 6.73 µM (inactive) in the test with 786-0; > 10 µM (inactive) in the test on OVCAR-8; > 10 µM (inactive) with UACC-62; 3.86 µM (inactive) in the test with MOLT-4. Besides, the GI50 in the test on NCI-H23 is > 10 µM (inactive); in the test on SF-539 it was > 10 µM (inactive); in the test on SK-OV-3, > 10 µM (inactive); in the test on SR, 8.89 µM (inactive); with MDA-N it was > 10 µM (inactive); in the test on SW-620 it was > 10 µM (inactive). Moreover, the GI50 in the test on KM12 was > 10 µM (inactive).

The record behind these values is ChEMBL document CHEMBL1201862, “PubChem BioAssay data set” (2004).
